The target in experiment [1] is T1, Beta-lactamase (Enterobacter cloacae, UniProt P05364).
Description: Inhibitory activity against beta-Lactamase enzyme derived from Enterobacter cloacae P99
In experiment [2] the target is T1, Beta-lactamase. The source holds these as a separate data set.
Description: Inhibitory activity against beta-Lactamase enzyme derived from Enterobacter cloacae SC 12368 E-2
Experiment [3] has as its target Beta-lactamase TEM (Escherichia coli, UniProt P62593). In words: Inhibitory activity against beta-Lactamase enzyme derived from Escherichia coli WC3310 TEM-2.
The test system of experiment [4] is Enterobacter cloacae. Briefly: […] antibacterial activity (synergistic study) against Enterobacter cloacae 12368. It counts as functional.
In experiment [5] the test system is Staphylococcus aureus. Briefly: […] antibacterial activity (synergistic study) against Staphylococcus aureus ATCC 29213. It counts as functional.
For experiment [6], the system named is Escherichia coli. In words: […] antibacterial activity (synergistic study) against Escherichia coli TEM-1. Type of experiment: functional.
For experiment [7], the system named is Escherichia coli. Briefly: […] antibacterial activity (synergistic study) against Escherichia coli OXA-1. Type of experiment: functional.
Experiment [8] has as its system Escherichia coli. In words: […] antibacterial activity (synergistic study) against Escherichia coli TEM-2. It counts as functional.
In experiment [9] the test system is Enterobacter cloacae. In words: […] antibacterial activity (synergistic study) against Enterobacter cloacae P99. Type of experiment: functional.

Where only a bound is given, the exact number is not on record here.

Sequence of Beta-lactamase TEM (P62593 whole entry): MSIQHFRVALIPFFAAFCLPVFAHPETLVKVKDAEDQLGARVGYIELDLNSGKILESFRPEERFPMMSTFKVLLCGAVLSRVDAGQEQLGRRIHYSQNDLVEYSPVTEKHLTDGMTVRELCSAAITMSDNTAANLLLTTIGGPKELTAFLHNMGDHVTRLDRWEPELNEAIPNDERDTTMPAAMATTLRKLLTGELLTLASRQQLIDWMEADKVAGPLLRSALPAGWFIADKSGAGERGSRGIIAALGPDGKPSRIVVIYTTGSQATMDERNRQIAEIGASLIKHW
T1 sequence (P05364 whole entry): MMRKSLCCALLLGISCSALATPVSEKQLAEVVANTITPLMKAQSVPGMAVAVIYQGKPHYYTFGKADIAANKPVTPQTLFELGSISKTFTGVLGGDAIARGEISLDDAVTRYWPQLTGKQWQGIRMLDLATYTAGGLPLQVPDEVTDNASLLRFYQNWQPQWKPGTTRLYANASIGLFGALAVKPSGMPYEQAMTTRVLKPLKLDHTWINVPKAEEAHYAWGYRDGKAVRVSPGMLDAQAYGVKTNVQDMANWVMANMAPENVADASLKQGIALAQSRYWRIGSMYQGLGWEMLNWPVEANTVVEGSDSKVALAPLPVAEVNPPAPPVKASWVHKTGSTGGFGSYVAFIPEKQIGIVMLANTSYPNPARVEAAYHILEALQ

By IC50 is commonly meant the concentration at which inhibition is half-maximal. On to `COC(=O)/C=C1/C(=O)N2C(C(=O)O)=C(COC(C)=O)CS[C@H]12`, for which the IC50 in experiment [1], in experiment [2] and in experiment [3] was greater than 20000 nM each time.
As a reminder, the MIC is the lowest concentration found to suppress growth. Turning to `CCN1CCN(C(=O)NC(C(=O)N[C@H]2C(=O)N3[C@H]2SC(C)(C)[C@H]3C(=O)O)c2ccccc2)C(=O)C1=O.COC(=O)/C=C1/C(=O)N2C(C(=O)[O-])=C(COC(C)=O)CS(=O)(=O)[C@H]12.[Na+]` (some centres undefined), the MIC in experiment [4] came to 16 µg/mL; in [5], 4 µg/mL; in experiment [6] it was 32 µg/mL; in experiment [7] it was 64 µg/mL; in experiment [8], 64 µg/mL; in [9] it was 128 µg/mL.
With `CC(=O)OCC1=C(C(=O)[O-])N2C(=O)/C(=C/C(=O)OC(C)(C)C)[C@H]2S(=O)(=O)C1.CCN1CCN(C(=O)NC(C(=O)N[C@H]2C(=O)N3[C@H]2SC(C)(C)[C@H]3C(=O)O)c2ccccc2)C(=O)C1=O.[Na+]` (some centres undefined), the MIC in experiment [4] turned out to be 16 µg/mL; in [5] it was 4 µg/mL; in experiment [6], 64 µg/mL; in [7] it was 64 µg/mL; in [8], 128 µg/mL; in [9], 128 µg/mL.
For the compound `CC1(C)[C@H](C(=O)[O-])N2C(=O)/C(=C/C(=O)[O-])[C@H]2S1(=O)=O.[Na+].[Na+]`, the minimum inhibitory concentration (MIC) in [4], in [5], in experiment [6], in experiment [7], in [8] and in experiment [9] was greater than 128 µg/mL throughout. In addition, the IC50 in experiment [1] is 45 nM; in experiment [2] it was 91 nM; in [3] it was 120 nM.
Regarding `CC(C)(C)OC(=O)/C=C1/C(=O)N2[C@@H](C(=O)[O-])C(C)(C)S(=O)(=O)[C@H]12.[Na+]`, the MIC in experiment [4], in [5], in [6], in experiment [7], in experiment [8] and in experiment [9] was greater than 128 µg/mL in each case. Also, the IC50 in experiment [1] is 4090 nM; in experiment [2], 13600 nM; in experiment [3] it was 136 nM.
Turning to `CC(C)(C)OC(=O)/C=C1/C(=O)N2[C@@H](C(=O)[O-])C(C)(C)S(=O)(=O)[C@H]12.CCN1CCN(C(=O)NC(C(=O)N[C@H]2C(=O)N3[C@H]2SC(C)(C)[C@H]3C(=O)O)c2ccccc2)C(=O)C1=O.[Na+]` (some centres undefined), the MIC in [4] is 32 µg/mL; in experiment [5], 2 µg/mL; in experiment [6], 128 µg/mL; in experiment [7], 32 µg/mL; in experiment [8], greater than 128 µg/mL; in [9] it was 128 µg/mL.
In the case of `CCN1CCN(C(=O)N[C@@H](C(=O)NC2C(=O)N3C2SC(C)(C)C3C(=O)O)c2ccccc2)C(=O)C1=O` (single isomer, unassigned; form 2) [PIPERACILLIN], the MIC was 16 µg/mL in [4]; 4 µg/mL in experiment [5]; greater than 128 µg/mL in experiment [6]; 64 µg/mL in [7]; greater than 128 µg/mL in experiment [8]; greater than 128 µg/mL in experiment [9].
As to `CC(C)(C)OC(=O)/C=C1/C(=O)N2[C@@H]1SC(C)(C)[C@@H]2C(=O)O`, the IC50 in experiment [1] is 8950 nM; in experiment [2] it was greater than 20000 nM; in experiment [3], greater than 20000 nM.
On to `C=C1C(=O)N2C(C(=O)O)=C(COC(C)=O)CS(=O)(=O)[C@H]12`, for which the IC50 in [1] was 25 nM; in experiment [2], 25 nM; in [3] it was 800 nM.
In the case of `C[C@]1(Cn2ccnn2)[C@H](C(=O)O)N2C(=O)C[C@H]2S1(=O)=O` (single isomer, unassigned) [TAZOBACTAM], the MIC was greater than 128 µg/mL in [4]; 64 µg/mL in [5]; greater than 128 µg/mL in experiment [6]; greater than 128 µg/mL in experiment [7]; greater than 128 µg/mL in [8]; greater than 128 µg/mL in [9].
Regarding `CC(=O)/C=C1/C(=O)N2[C@@H]1SC(C)(C)[C@@H]2C(=O)O`, the values for the IC50 in experiment [1], in experiment [2] and in experiment [3] were 361 nM, 5410 nM and 3 nM, respectively.
For the compound `COC(=O)/C=C1/C(=O)N2[C@@H](C(=O)[O-])C(C)(C)S(=O)(=O)[C@H]12.[Na+]`, the MIC in experiment [4], in experiment [5], in experiment [6], in [7], in experiment [8] and in experiment [9] was greater than 128 µg/mL in each case. Also, the values for the IC50 in [1], in [2] and in experiment [3] were 154 nM, 615 nM and 308 nM, respectively.
As for `CCN1CCN(C(=O)NC(C(=O)N[C@H]2C(=O)N3[C@H]2SC(C)(C)[C@H]3C(=O)O)c2ccccc2)C(=O)C1=O.COC(=O)/C=C1/C(=O)N2[C@@H](C(=O)[O-])C(C)(C)S(=O)(=O)[C@H]12.[Na+]` (some centres undefined), the MIC in experiment [4] was 16 µg/mL; in experiment [5], 1 µg/mL; in experiment [6], 64 µg/mL; in experiment [7] it was 16 µg/mL; in [8], 128 µg/mL; in [9], 128 µg/mL.
In the case of `CC(=O)OCC1=C(C(=O)O)N2C(=O)/C(=C/C(=O)O)[C@H]2SC1`, the IC50 in experiment [1], in [2] and in experiment [3] was greater than 20000 nM each time.
With `CC(=O)OCC1=C(C(=O)[O-])N2C(=O)/C(=C/C(=O)OC(C)(C)C)[C@H]2S(=O)(=O)C1.[Na+]`, the MIC in experiment [4] was greater than 128 µg/mL; in [5] it was 4 µg/mL; in experiment [6] it was greater than 128 µg/mL; in experiment [7], greater than 128 µg/mL; in experiment [8], greater than 128 µg/mL; in [9], greater than 128 µg/mL.
As for `COC(=O)/C=C1/C(=O)N2C(C(=O)[O-])=C(COC(C)=O)CS(=O)(=O)[C@H]12.[Na+]`, the MIC in experiment [4], in [5], in [6], in experiment [7], in experiment [8] and in [9] was greater than 128 µg/mL throughout. The results for the IC50 in experiment [1], in [2] and in [3] were greater than 20000 nM, greater than 20000 nM and 37 nM, respectively.
`CC(=O)OCC1=C(C(=O)[O-])N2C(=O)/C(=C/C(=O)[O-])[C@H]2S(=O)(=O)C1.CCN1CCN(C(=O)NC(C(=O)N[C@H]2C(=O)N3[C@H]2SC(C)(C)[C@H]3C(=O)O)c2ccccc2)C(=O)C1=O.[Na+].[Na+]` (some centres undefined): the MIC stood at 32 µg/mL in experiment [4]; 4 µg/mL in [5]; 64 µg/mL in experiment [6]; 64 µg/mL in [7]; 128 µg/mL in experiment [8]; 128 µg/mL in [9].
For the compound `CC1(C)S[C@@H]2/C(=C\C(=O)O)C(=O)N2[C@H]1C(=O)O`, the IC50 in [1] is 13900 nM; in experiment [2], greater than 20000 nM; in experiment [3], greater than 20000 nM.
For the compound `CC(=O)OCC1=C(C(=O)[O-])N2C(=O)/C(=C/C(=O)[O-])[C@H]2S(=O)(=O)C1.[Na+].[Na+]`, the minimum inhibitory concentration (MIC) in experiment [4] is greater than 128 µg/mL; in experiment [5] it was 16 µg/mL; in experiment [6], greater than 128 µg/mL; in experiment [7], greater than 128 µg/mL; in [8], greater than 128 µg/mL; in experiment [9], greater than 128 µg/mL. For the same compound, the IC50 is greater than 20000 nM in experiment [1], greater than 20000 nM in experiment [2] and 400 nM in [3].
For `CCN1CCN(C(=O)N[C@@H](C(=O)NC2C(=O)N3C2SC(C)(C)C3C(=O)O)c2ccccc2)C(=O)C1=O.C[C@]1(Cn2ccnn2)[C@H](C(=O)O)N2C(=O)C[C@H]2S1(=O)=O` (single isomer, unassigned; form 1), the MIC stood at 16 µg/mL in experiment [4]; 1 µg/mL in experiment [5]; 2 µg/mL in [6]; 16 µg/mL in experiment [7]; 8 µg/mL in [8]; 16 µg/mL in experiment [9].
As to `C=C=C1C(=O)N2C(C(=O)O)=C(COC(C)=O)CS(=O)(=O)[C@H]12`, the concentration for half-maximal inhibition (IC50) was 130 nM in [1], 260 nM in experiment [2] and greater than 20000 nM in experiment [3].
Taken in the same sequence, the figures for `COC(=O)/C=C1/C(=O)N2[C@@H]1SC(C)(C)[C@@H]2C(=O)O` were greater than 20000 nM, greater than 20000 nM and greater than 20000 nM.
As for `CC1(C)[C@H](C(=O)[O-])N2C(=O)/C(=C/C(=O)[O-])[C@H]2S1(=O)=O.CCN1CCN(C(=O)NC(C(=O)N[C@H]2C(=O)N3[C@H]2SC(C)(C)[C@H]3C(=O)O)c2ccccc2)C(=O)C1=O.[Na+].[Na+]` (some centres undefined), the minimum inhibitory concentration (MIC) came to 16 µg/mL in experiment [4]; 4 µg/mL in [5]; 32 µg/mL in experiment [6]; 16 µg/mL in experiment [7]; 64 µg/mL in experiment [8]; 128 µg/mL in [9].

These data come from ChEMBL document CHEMBL1128766, “The synthesis and lactamase inhibitory activity of 6-(carboxymethylene)penicillins and 7-(carboxymethylene)cephalosporins” (Bioorg Med Chem Lett, 1995).
